Format in all cases: cell-based
Experiment [1] relates to Staphylococcus aureus MSQS (methicillin sensitive and quinolone sensitive). Kind of experiment: MIC by agar dilution, Staphylococcus aureus MSQS. The note with it: S. aureus MSQS, 10^4 CFU/spot, 37° C., 24 hours. On the procedure: (§1) The following results were obtained on a standard in-vitro test system. The activity is described in terms of the minimum inhibitory concentration (MIC) determined by the agar-dilution technique with an inoculum size of 10^4 CFU/spot. Typically, compounds are active in the range 0.01 to 256 μg/ml.
(§2) Staphylococci were tested on agar, using an inoculum of 10^4 CFU/spot and an incubation temperature of 37° C., for 24 hours—standard test conditions for the expression of methicillin resistance.

The next experiment relates to Streptococcus pneumoniae. Kind of experiment: MIC by agar dilution, Streptococcus pneumoniae. The settings on record: agar with 5% defibrinated horse blood, 10^4 CFU/spot, 37° C., 5% carbon dioxide, 48 hours. The method, then: as §1
(§3) Streptococci and enterococci were tested on agar supplemented with 5% defibrinated horse blood, an inoculum of 10^4 CFU/spot and an incubation temperature of 37° C., in an atmosphere of 5% carbon dioxide for 48 hours—blood is required for the growth of some of the test organisms. Fastidious Gram negative organisms were tested in Mueller-Hinton broth, supplemented with hemin and NAD, grown aerobically for 24 hours at 37° C., and with an innoculum of 5×10^4 CFU/well.
On the technique in general: In agar dilution the substance is mixed into plates at graded concentrations.

A further experiment relates to Moraxella catarrhalis. The experiment can be described thus: MIC in Mueller-Hinton broth, Moraxella catarrhalis. The settings on record: Mueller-Hinton broth with hemin and NAD, aerobic, 24 hours, 37° C., 5×10^4 CFU/well. On the procedure:
as §1, §3

The subject of another experiment is Haemophilus influenzae. Kind of experiment: MIC in Mueller-Hinton broth, Haemophilus influenzae. The note with it: Mueller-Hinton broth with hemin and NAD, aerobic, 24 hours, 37° C., 5×10^4 CFU/well. On the procedure: as §1, §3
Experiment [2] relates to Staphylococcus aureus MRQR (methicillin resistant and quinolone resistant). Kind of experiment: MIC by agar dilution, Staphylococcus aureus MRQR. The note with it: S. aureus MRQR, 10^4 CFU/spot, 37° C., 24 hours. On the procedure: as §1, §2
The subject of experiment [3] is Linezolid Resistant Streptococcus pneumoniae. The experiment can be described thus: MIC by agar dilution, Linezolid Resistant Streptococcus pneumoniae. The settings on record: agar with 5% defibrinated horse blood, 10^4 CFU/spot, 37° C., 5% carbon dioxide, 48 hours. The method, then: as §1, §3
Another experiment deals with Enterococcus faecium. Kind of experiment: MIC by agar dilution, Enterococcus faecium. The note with it: agar with 5% defibrinated horse blood, 10^4 CFU/spot, 37° C., 5% carbon dioxide, 48 hours. The method, then:
as §1, §3

Values after ≈ are worked out from the molar mass of the structure shown.

In the case of `Cn1nnc(-c2ccc(-c3ccc(N4C[C@H](COc5ccon5)OC4=O)cc3F)cn2)n1` [Example 1], the MIC in experiment [1] worked out at 4 µg/mL (≈ 9.15 µM); with Streptococcus pneumoniae, 1 µg/mL (≈ 2.29 µM); in the experiment on Moraxella catarrhalis, 4 µg/mL (≈ 9.15 µM); against Haemophilus influenzae it was 64 µg/mL (≈ 146 µM); in experiment [2], 4 µg/mL (≈ 9.15 µM); in experiment [3] it was 64 µg/mL (≈ 146 µM). This compound also returned an MIC against Enterococcus faecium of 4 µg/mL (≈ 9.15 µM).

Values taken from patent US20060058317A1, “Oxazolidinone derivatives as antibacterial” (AstraZeneca AB, priority 2002, published 2006).
